Results: ChEMBL document CHEMBL1158079, “Antimalarial 4-phenylcoumarins from the stem bark of Hintonia latiflora” (J Nat Prod, 2006)
≈ marks a conversion by molar mass, not a printed value.

Experiments:
[1] = test system: Plasmodium berghei; test: Antimalarial activity as reduced schizont maturation in Plasmodium berghei ANKA infected mice (Mus musculus) at 40 mg/kg/day peroral dose over 4 days; type: functional; parameters: scale not given: the % may be the effect or the level left; conditions: route oral
[2] = test system: Plasmodium berghei; test: Antimalarial activity as reduced schizont maturation in Plasmodium berghei after 16 hrs; type: functional; parameters: scale not given: the % may be the effect or the level left
[3] = test system: Mus musculus; test: Toxicity in Plasmodium berghei ANKA infected mice (Mus musculus) at 40 mg/kg/day, perorally after 4 days; type: organism-based; parameters: route oral; conditions: in vivo, po, 96 h
[4] = test system: Plasmodium berghei; test: Antimalarial activity as reduced schizont maturation in Plasmodium berghei ANKA infected mice (Mus musculus) at 5 mg/kg/day peroral dose over 4 days; type: functional; parameters: scale not given: the % may be the effect or the level left; conditions: route oral
[5] = test system: Plasmodium berghei; test: Antimalarial activity reduced schizont maturation in Plasmodium berghei at 10 ug/mL after 16 hrs; type: functional; parameters: scale not given: the % may be the effect or the level left
[6] = test system: Plasmodium berghei; test: Antimalarial activity in schizont maturation against Plasmodium berghei ANKA infected mice (Mus musculus) at 200 mg/kg/day peroral dose over 4 days; type: functional; conditions: route oral
[7] = Toxicity against human KB cells; type: cell-based; conditions: read-out: ED50 (the source's name)
[8] = Toxicity against mouse P388 cells; type: cell-based; conditions: read-out: ED50 (the source's name)
[9] = Toxicity against human SQC1 UISO cells; type: cell-based; conditions: read-out: ED50 (the source's name)

SMILES | Activity [1] | Activity [2] | Activity [3] | Activity [4] | Activity [5] | Activity [6] | CC50 [7] | CC50 [8] | CC50 [9]
COc1cc(O[C@@H]2O[C@H](CO)[C@@H](O)[C@H](O)[C@H]2O)c2c(-c3ccc(O)c(O)c3)cc(=O)oc2c1 | 70.8% | 25.9% | Non-toxic | – | – | – | – | – | –
COc1cc(O[C@@H]2O[C@H](CO)[C@@H](O)[C@H](O)[C@H]2O)c2c(-c3ccc(OC)c(O)c3)cc(=O)oc2c1 | 35.1% | 24.7% | Non-toxic | – | – | – | – | – | –
CCN(CC)CCCC(C)Nc1ccnc2cc(Cl)ccc12 (stereo not drawn) [CHLOROQUINE] | – | – | Non-toxic | 95.7% | 100% | 94% | – | – | –
Cc1c2ccncc2c(C)c2c1[nH]c1ccccc12 [ELLIPTECINE] | – | – | – | – | – | – | 1.31 µg/mL (≈ 5.32 µM) | < 1 µg/mL | 1.77 µg/mL (≈ 7.19 µM)
